Some test systems named below: HOP-62 NSCLC; 786-0 renal; SF-268 CNS; SR leukemia; COLO 205 colon; NCI-H226 lung; SN12C renal; HOP-92 NSCLC; RPMI-8226 leukemia.
Common to all, as to assay: growth of human tumour cells (NCI), 48 h

Structures are written as SMILES. Values joined by “and” are separate entries in the source; they are usually repeats but may differ in a detail not shown here. Identical values can stand only once.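 Method: 48-hour compound exposure of cells in 96-well plates, five concentrations, linear interpolation of endpoints. GI50: concentration for 50% inhibition of growth. Definition used: TGI = concentration required for complete inhibition of growth.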 Some results are limits rather than exact numbers.

Regarding `Cc1ccc2[c](c1)[Sn]([c]1ccccc1)([c]1ccccc1)[c]1cc(C)ccc1N2C`, the GI50 in the assay with HOP-62 NSCLC was > 100 µM; in the assay on 786-0 renal, 16.2 µM; in the assay with SF-268 CNS, 48.4 µM; with SR leukemia, 0.116 µM; in the assay with COLO 205 colon, 23.1 µM; in the assay with NCI-H226 lung, 49 µM. In addition, the GI50 in the assay on SN12C renal was > 100 µM; in the assay on HOP-92 NSCLC it was 5.58 µM and 15.7 µM. Moreover, the TGI in the assay with HOP-62 NSCLC is > 100 µM; in the assay with 786-0 renal, > 100 µM; in the assay on SF-268 CNS, > 100 µM; with COLO 205 colon, 52.2 µM; with NCI-H226 lung, > 100 µM; in the assay on SN12C renal, > 100 µM. Further, the TGI in the assay with HOP-92 NSCLC is > 100 µM.
Turning to `CN(C)CCNc1nc2ccccc2c2c(=O)c3cc(F)ccc3sc12`, the GI50 is 1.89 µM with HOP-62 NSCLC; 1.47 µM in the assay on 786-0 renal; 3.27 µM with SR leukemia; 2.3 µM with RPMI-8226 leukemia; 2.13 µM with COLO 205 colon; 1.61 µM with NCI-H226 lung. In the assay with SN12C renal, the GI50 is 1.57 µM. Further, the TGI was 3.93 µM in the assay on HOP-62 NSCLC; 2.91 µM with 786-0 renal; > 100 µM with SR leukemia; 5.18 µM with RPMI-8226 leukemia; 4.86 µM in the assay with COLO 205 colon; 3.14 µM with NCI-H226 lung. Further, in the assay on SN12C renal, the TGI stood at 3 µM.
In the case of `NCCN.O=C([O-])[O-].O=C([O-])[O-].[Co+3].[K+]`, the GI50 in the assay on HOP-62 NSCLC, in the assay on 786-0 renal, with SF-268 CNS, in the assay on RPMI-8226 leukemia, in the assay with COLO 205 colon and in the assay on SN12C renal was > 100 µM in each case. Moreover, the GI50 with HOP-92 NSCLC is 49.4 µM and 75.2 µM. The TGI in the assay on HOP-62 NSCLC, with 786-0 renal, in the assay on SF-268 CNS, with RPMI-8226 leukemia, in the assay with COLO 205 colon and with SN12C renal was > 100 µM each time. Besides, the TGI in the assay on HOP-92 NSCLC is > 100 µM.
For the compound `CCCCCCCCCCCCCCCCCCC1=C(O)C(=O)C=C(OC)C1=O`, the TGI in the assay on HOP-62 NSCLC, in the assay with 786-0 renal, with SF-268 CNS, in the assay with SR leukemia, with COLO 205 colon and in the assay on NCI-H226 lung was > 100 µM throughout. Moreover, the TGI in the assay with SN12C renal and in the assay on HOP-92 NSCLC was > 100 µM each time.
Turning to `COc1cc2c(cc1OC)C1Cc3cc(OC)c(OC)cc3N1CC2` (configuration not stated), the TGI in the assay with HOP-62 NSCLC was 84.9 µM; in the assay with 786-0 renal, 37.9 µM; in the assay with SF-268 CNS, > 100 µM; in the assay on SR leukemia it was > 100 µM; with RPMI-8226 leukemia it was 88 µM; with COLO 205 colon, 52.1 µM. Further, the TGI with NCI-H226 lung is 47.9 µM; in the assay on SN12C renal it was > 100 µM; in the assay with HOP-92 NSCLC, > 100 µM.
`COC(=O)c1c[nH]cc1CCCCc1c[nH]cc1C(=O)OC`: the TGI in the assay on HOP-62 NSCLC, in the assay with 786-0 renal, in the assay with SF-268 CNS, in the assay with SR leukemia, in the assay with COLO 205 colon and with NCI-H226 lung was > 100 µM each time. Moreover, the TGI in the assay with SN12C renal and in the assay with HOP-92 NSCLC was > 100 µM each time.
`CCOc1ccc(N=Cc2c3ccccc3nc3ccccc23)cc1`: the TGI in the assay on HOP-62 NSCLC, in the assay on 786-0 renal, in the assay with SF-268 CNS, with RPMI-8226 leukemia, in the assay with COLO 205 colon and in the assay with NCI-H226 lung was > 100 µM throughout. Moreover, the TGI with SN12C renal and in the assay with HOP-92 NSCLC was > 100 µM each time.
On to `CCC[CH2][Sn]1([CH2]CCC)[O]CC(COc2c(Cl)cc(Cl)cc2Cl)[O]1` (configuration not stated), for which the GI50 was 2.63 µM in the assay on HOP-62 NSCLC; 1.41 µM in the assay with 786-0 renal; 1.15 µM in the assay with SF-268 CNS; 0.78 µM in the assay on RPMI-8226 leukemia; 1.39 µM with COLO 205 colon; 1.82 µM with NCI-H226 lung. Also, the GI50 in the assay on SN12C renal is 1.75 µM; in the assay on HOP-92 NSCLC, 1.55 µM. For the same compound, the TGI in the assay on HOP-62 NSCLC came out at 7.97 µM; in the assay with 786-0 renal it was 2.74 µM; in the assay with SF-268 CNS, 2.68 µM; with RPMI-8226 leukemia, 3.72 µM; with COLO 205 colon, 2.75 µM; in the assay on NCI-H226 lung it was 3.82 µM. Also, the figures for the TGI in the assay on SN12C renal and with HOP-92 NSCLC were 3.27 µM and 3.06 µM, respectively.
With `CCOC(=O)C1=C(Nc2ccc(Br)cc2)OCC1=O`, the TGI in the assay with HOP-62 NSCLC, in the assay with 786-0 renal, with SF-268 CNS, with SR leukemia, with COLO 205 colon and with NCI-H226 lung was > 100 µM throughout. For the same compound, the TGI with SN12C renal and in the assay with HOP-92 NSCLC was > 100 µM throughout.
As for `CCc1nc(Cl)c(Cl)c(Cl)n1`, the TGI with HOP-62 NSCLC, with 786-0 renal, in the assay with SF-268 CNS, with SR leukemia, with RPMI-8226 leukemia and with NCI-H226 lung was > 100 µM in each case. The TGI with SN12C renal was > 100 µM.
For `Cc1ccc(C)c(N2C(=O)C(=O)C(c3nc4ccccc4o3)/C(=N/N)C2=O)c1` (configuration not stated), the TGI in the assay on HOP-62 NSCLC, in the assay with 786-0 renal, in the assay with SF-268 CNS, in the assay with SR leukemia, in the assay on COLO 205 colon and with NCI-H226 lung was > 100 µM throughout. The TGI in the assay on SN12C renal and in the assay on HOP-92 NSCLC was > 100 µM each time.
As for `Cn1cc(-c2csc(-c3cn(C)c4ccc(F)cc34)n2)c2cnccc21`, the GI50 in the assay with HOP-62 NSCLC is 1.92 µM; with 786-0 renal, 1.51 µM; with SF-268 CNS, 1.93 µM; with RPMI-8226 leukemia, 1.98 µM; with NCI-H226 lung, 2.05 µM; with SN12C renal, 1.7 µM. Also, the GI50 with HOP-92 NSCLC is 1.64 µM. Further, the TGI in the assay with HOP-62 NSCLC was determined as 3.49 µM; in the assay on 786-0 renal it was 2.96 µM; in the assay with SF-268 CNS it was 3.79 µM; with RPMI-8226 leukemia, 4.14 µM; in the assay on NCI-H226 lung, 4.26 µM; in the assay with SN12C renal, 3.14 µM. The TGI with HOP-92 NSCLC was found to be 3.26 µM.
Consider `O=C1c2ccc3c4ccccc4n(-c4ccccc4)c3c2C(=O)N1c1ccc(Cl)cc1`, for which the TGI in the assay with HOP-62 NSCLC, with 786-0 renal, in the assay with SF-268 CNS, in the assay with SR leukemia, with COLO 205 colon and in the assay with NCI-H226 lung was > 100 µM throughout. Further, the values for the TGI with SN12C renal and in the assay with HOP-92 NSCLC were > 100 µM and 75 µM, respectively.

Source of the values: PubChem BioAssay (NCI).
